Molecules are shown by their SMILES. Where “and” joins values, the source holds several entries; their conditions need not be identical. Equal values may be shown once. Calls of active or inactive are those of the source.

The nature of experiment [1]: A Cell Based Secondary Assay To Explore Cytotoxicity of Compounds that Sensitize Mycobacterium Tuberculosis to Beta-Lactam Antibiotics. The experiment is classed as functional.
For experiment [2], the target named is DNA dC->dU-editing enzyme APOBEC-3G (Homo sapiens, UniProt Q9HC16). Put plainly: Dose Response confirmation of small molecule APOBEC3G DNA Deaminase Inhibitors via a fluorescence-based single-stranded DNA deaminase assay. [Related pubchem assays (depositor defined):AID493012, AID493028]. The experiment is classed as functional.
A short description of experiment [3]: viability loss in THP-1 monocytes – THP-1 cells, cytotoxicity control for Vif-APOBEC3G degradation inhibitor project, dose response (AID 1117359). Format: functional. The settings on record: THP-1.
Experiment [4] concerns the target Glucose-6-phosphate 1-dehydrogenase (Homo sapiens, UniProt P11413). Nature of the experiment: inhibition of Homo sapiens G6PD, dose series – biochemical, fluorescence, selectivity assay for P. falciparum G6PD inhibitor project, dose response (AID 504792). Format: functional.
The target in another experiment is T1, Hexokinase (Trypanosoma brucei, UniProt Q38C41).
T1 sequence (Q38C41 whole entry): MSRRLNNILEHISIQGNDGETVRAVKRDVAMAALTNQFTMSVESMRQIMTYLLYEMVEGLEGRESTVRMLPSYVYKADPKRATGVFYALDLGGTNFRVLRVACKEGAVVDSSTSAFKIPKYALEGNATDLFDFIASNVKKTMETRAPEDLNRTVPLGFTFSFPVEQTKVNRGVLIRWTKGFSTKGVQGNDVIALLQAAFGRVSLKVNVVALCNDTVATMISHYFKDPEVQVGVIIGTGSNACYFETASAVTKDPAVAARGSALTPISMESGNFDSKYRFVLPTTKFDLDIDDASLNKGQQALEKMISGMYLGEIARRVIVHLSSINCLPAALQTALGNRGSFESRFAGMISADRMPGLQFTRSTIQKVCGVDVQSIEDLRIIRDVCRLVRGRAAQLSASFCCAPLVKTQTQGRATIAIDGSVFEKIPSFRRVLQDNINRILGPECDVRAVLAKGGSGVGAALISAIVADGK
Nature of the experiment: Confirmation assay for inhibitors of Trypanosoma brucei hexokinase 1-Analogue-first series. [Related pubchem assays (depositor defined):AID1430, AID1632, AID2516, AID2560, AID2579, AID2600, AID449725, AID492951]. Format: functional.

A further experiment deals with Vero. Put plainly: mammalian cell viability reduction – secondary assay, cytotoxicity control for West Nile virus antiviral project, dose response (AID 1650). Format: functional. The note with it: Chlorocebus sabaeus.
The nature of experiment [5]: viability of PTEN-deleted HCT116 cells – cell-based, HCT116 PTEN knockout, dose response (AID 1047).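 Further: HCT116 colon tumor cells with PTEN knocked out; cells exposed to compound for 60 hours before readout; potency for loss of cell viability measured by luminescence.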 The experiment is classed as functional.
Experiment [6] can be described thus: viability of HCT116 lacking mutant beta-catenin – cell-based, human colon tumor, dose response (AID 1045).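 Further: HCT116 colon tumor cells with beta catenin knocked out; cells exposed to compound for 60 hours.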 The experiment is classed as functional.
A further experiment concerns the target Procathepsin L (Homo sapiens, UniProt P07711).
Experiment [7] concerns the target Induced myeloid leukemia cell differentiation protein Mcl-1 (Homo sapiens, UniProt Q07820). The experiment is classed as functional.
The nature of experiment [8]: A cytotoxicity screen of small molecule inhibitors of the PhoP region in Salmonella typhi identified in the primary screen. [Related pubchem assays: 1850, 1864, 1985 ]. The experiment is classed as functional.
The target of another experiment is Large T antigen (Simian virus 40, UniProt P03070). Format: functional, Betapolyomavirus macacae.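 Further: Confirmatory-stage PubChem screen for compounds that inhibit SV40 T antigen.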
Another experiment addresses T2, Aspartyl aminopeptidase (Plasmodium falciparum 3D7, UniProt Q8I2J3).
T2 sequence (Q8I2J3 whole entry): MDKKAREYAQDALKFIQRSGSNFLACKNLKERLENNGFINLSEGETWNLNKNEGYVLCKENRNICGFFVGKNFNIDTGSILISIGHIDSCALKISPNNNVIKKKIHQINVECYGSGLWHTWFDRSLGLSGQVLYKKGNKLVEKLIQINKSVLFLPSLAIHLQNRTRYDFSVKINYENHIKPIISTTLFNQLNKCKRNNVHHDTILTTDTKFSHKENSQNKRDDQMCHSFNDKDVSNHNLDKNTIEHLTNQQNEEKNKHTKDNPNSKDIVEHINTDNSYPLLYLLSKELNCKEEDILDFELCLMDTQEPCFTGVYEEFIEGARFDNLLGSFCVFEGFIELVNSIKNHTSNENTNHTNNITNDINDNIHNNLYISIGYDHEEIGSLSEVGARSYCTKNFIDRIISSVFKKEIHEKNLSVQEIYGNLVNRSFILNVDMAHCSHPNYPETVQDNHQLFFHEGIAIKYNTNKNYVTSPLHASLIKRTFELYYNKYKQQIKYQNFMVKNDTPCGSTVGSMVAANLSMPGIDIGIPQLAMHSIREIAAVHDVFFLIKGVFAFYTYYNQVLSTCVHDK

Experiment [9] is described as follows: Luminescence Cell-Based Dose Confirmation HTS to Identify Inhibitors of Polyadenylation. The experiment is classed as functional.
Experiment [10] can be described thus: Luminescence Cell-Based Dose Response to Identify Activators of 5'UTR Stem-Loop Driven Prion Protein mRNA Translation in H4-C Neuroglioblastoma Cells. [Related pubchem assays: 1829 (Project Summary), 1814 (Primary HTS)]. Format: functional.
Experiment [11] in a line: Luminescence Cell-Based Dose Response HTS to Identify Activators of Luciferase Translation or Activity in H4 […] Cells. [Related pubchem assays: 1829 (Project Summary), 1814 (Primary HTS)]. The experiment is classed as functional.
A short description of experiment [12]: Luminescence Cell-Based Dose Confirmation to Identify Activators of 5'UTR Stem-Loop Driven Alpha-Synuclein mRNA Translation in H4 Neuroglioblastoma Cells. [Related pubchem assays: 1829 (Project Summary), 1814 (Primary HTS)]. The experiment is classed as functional.
Experiment [13] can be described thus: Luminescence Cell-Based Dose Response to Identify Activators of Luciferase Translation or Activity in H4-C Neuroglioblastoma Cells. [Related pubchem assays: 1829 (Project Summary), 1814 (Primary HTS)]. Format: functional.
A further experiment relates to H4. Put plainly: Luminescence Cell-Based Dose Response HTS to Identify Activators of 5'UTR Stem-Loop Driven Prion Protein mRNA Translation in H4 Neuroglioblastoma Cells. [Related pubchem assays: 1829 (Project Summary), 1814 (Primary HTS)]. The experiment is classed as functional. The note with it: Homo sapiens.
Experiment [14] has as its target FAD-linked sulfhydryl oxidase ALR (Homo sapiens, UniProt P55789). Nature of the experiment: ALR-catalysed DTT oxidation blockers – biochemical, H2O2 detection, luminescence, cherry-pick, dose response (AID 493248).
Experiment [15] is described as follows: HepG2 cell cytotoxicity, dose response, cytotoxicity control for non-replicating M. tuberculosis project (AID 489018). Format: functional. The settings on record: Mycobacterium tuberculosis.
Experiment [16] is described as follows: Trypanosoma cruzi growth suppression in host cells – NIH3T3 host cells, beta-gal luminescence, confirmation (AID 2044).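 Further: intracellular parasites grown in NIH/3T3 mouse fibroblasts as host cells; luminescent beta-galactosidase reporter signal from transgenic T. cruzi replicating inside host cells; inhibitors lower the luminescence signal.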 Format: functional, cell-based.
Experiment [17] in a line: Vero E6 cell cytotoxicity, dose response, cytotoxicity control for non-replicating M. tuberculosis project, secondary assay (AID 492998). Format: functional, VeroE6. The note with it: Vero C1008.
The nature of experiment [18]: THP-1 cell cytotoxicity, dose response, cytotoxicity control for non-replicating M. tuberculosis project (AID 489025). The experiment is classed as functional.
For a further experiment, the system named is Streptococcus. Put plainly: GAS UMAA2166 growth inhibition – luminescence, BacTiterGlo, counter-screen for streptokinase expression inhibitor project, dose response (AID 1915).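 Further: potency for reduction of bacterial viability or growth.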 Format: functional, organism-based. (In general: A counterscreen serves to expose hits that act by an unwanted route or on another target.)
Experiment [19] is described as follows: NIH3T3 cell viability loss – ATP luminescence, mouse fibroblasts, counter-screen, dose response (AID 2010).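 Further: cells exposed to compound for about 90 hours before reading.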 Format: functional, cell-based.
The target of another experiment is T3, Streptokinase A (Streptococcus pyogenes serotype M1, UniProt P10520).
T3 sequence (P10520 whole entry): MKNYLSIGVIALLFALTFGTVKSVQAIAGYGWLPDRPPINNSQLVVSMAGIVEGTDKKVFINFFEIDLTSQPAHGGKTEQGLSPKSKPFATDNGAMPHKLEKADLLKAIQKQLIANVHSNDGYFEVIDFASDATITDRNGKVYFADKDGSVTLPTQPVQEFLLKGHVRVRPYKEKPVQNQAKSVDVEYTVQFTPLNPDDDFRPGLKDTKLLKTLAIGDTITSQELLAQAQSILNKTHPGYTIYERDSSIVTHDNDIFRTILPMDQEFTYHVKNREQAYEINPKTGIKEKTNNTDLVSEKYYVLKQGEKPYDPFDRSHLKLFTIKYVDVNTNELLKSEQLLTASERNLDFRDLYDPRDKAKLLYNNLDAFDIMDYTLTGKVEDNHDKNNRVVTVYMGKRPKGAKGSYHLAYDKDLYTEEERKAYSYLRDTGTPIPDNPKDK
Nature of the experiment: viability-normalized secreted streptokinase activity reduction – plasminogen activation absorbance, OD405, dose response (AID 1914).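 Further: secreted streptokinase activity via plasminogen activation per viability signal from cell pellet.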 The experiment is classed as functional, Streptococcus pyogenes M1 GAS.

A short description of another experiment: cells. The experiment is classed as functional.
The next experiment relates to INS1. Put plainly: INS-1E survival protection against cytokine death – cell-based, luminescence, retest, dose response (AID 449756).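 Further: cell death triggered by IL-1 beta plus TNF-alpha plus IFN-gamma mixture; protective hits raise ATP signal compared with cytokine alone wells.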 Format: functional. The settings on record: Rattus norvegicus, INS1.
Experiment [20] deals with Streptococcus sp. 'group A'. Nature of the experiment: Streptococcus pyogenes SK(-)GAS viability under kanamycin – luminescence, BacTiterGlo, confirmation, counter-screen for streptokinase expression inhibitor project, dose response (AID 1900). Format: functional, organism-based.

Chain of DNA dC->dU-editing enzyme APOBEC-3G (Q9HC16 whole entry): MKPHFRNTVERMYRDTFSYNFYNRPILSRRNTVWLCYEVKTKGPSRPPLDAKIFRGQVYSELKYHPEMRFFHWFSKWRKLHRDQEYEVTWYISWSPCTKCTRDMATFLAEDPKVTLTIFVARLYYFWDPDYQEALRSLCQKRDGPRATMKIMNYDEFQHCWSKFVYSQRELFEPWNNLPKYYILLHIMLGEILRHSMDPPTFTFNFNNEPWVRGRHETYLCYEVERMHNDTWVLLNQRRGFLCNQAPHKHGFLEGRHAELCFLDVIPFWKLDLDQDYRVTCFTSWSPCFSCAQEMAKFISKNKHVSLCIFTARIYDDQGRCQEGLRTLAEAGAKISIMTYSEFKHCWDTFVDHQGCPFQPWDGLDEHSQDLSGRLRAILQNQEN
Chain of Glucose-6-phosphate 1-dehydrogenase (P11413 whole entry): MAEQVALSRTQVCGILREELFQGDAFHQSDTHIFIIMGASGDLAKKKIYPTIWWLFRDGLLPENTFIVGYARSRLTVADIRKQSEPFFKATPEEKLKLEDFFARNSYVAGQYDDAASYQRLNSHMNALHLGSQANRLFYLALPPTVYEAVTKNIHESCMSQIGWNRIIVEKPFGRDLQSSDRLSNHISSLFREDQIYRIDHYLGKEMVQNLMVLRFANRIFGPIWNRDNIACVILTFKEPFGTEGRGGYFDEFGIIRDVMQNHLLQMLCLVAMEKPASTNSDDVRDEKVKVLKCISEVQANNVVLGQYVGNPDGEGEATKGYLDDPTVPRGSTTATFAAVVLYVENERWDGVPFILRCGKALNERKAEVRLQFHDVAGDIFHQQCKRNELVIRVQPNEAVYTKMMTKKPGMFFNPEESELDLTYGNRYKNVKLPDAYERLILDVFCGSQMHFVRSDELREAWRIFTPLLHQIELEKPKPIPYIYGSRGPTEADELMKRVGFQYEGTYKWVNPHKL
Chain of Induced myeloid leukemia cell differentiation protein Mcl-1 (Q07820 whole entry): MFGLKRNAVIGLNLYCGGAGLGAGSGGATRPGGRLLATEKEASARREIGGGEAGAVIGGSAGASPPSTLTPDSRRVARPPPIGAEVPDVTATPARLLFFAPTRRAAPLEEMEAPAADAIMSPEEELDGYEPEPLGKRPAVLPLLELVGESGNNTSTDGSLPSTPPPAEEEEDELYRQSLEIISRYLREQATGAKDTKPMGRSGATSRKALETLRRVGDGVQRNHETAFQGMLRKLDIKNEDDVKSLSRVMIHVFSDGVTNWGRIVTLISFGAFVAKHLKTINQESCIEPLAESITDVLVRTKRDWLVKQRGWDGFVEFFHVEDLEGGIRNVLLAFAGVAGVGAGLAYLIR
Chain of Procathepsin L (P07711 whole entry): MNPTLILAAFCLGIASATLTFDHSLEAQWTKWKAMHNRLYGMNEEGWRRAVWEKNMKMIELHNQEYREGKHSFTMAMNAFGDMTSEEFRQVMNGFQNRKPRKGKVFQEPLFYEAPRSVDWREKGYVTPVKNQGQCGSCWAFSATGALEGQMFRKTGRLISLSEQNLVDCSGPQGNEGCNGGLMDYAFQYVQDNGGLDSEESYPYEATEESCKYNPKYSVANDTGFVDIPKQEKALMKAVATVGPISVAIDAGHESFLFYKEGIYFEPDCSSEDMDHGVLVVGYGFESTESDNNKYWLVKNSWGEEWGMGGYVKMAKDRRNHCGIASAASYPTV
Chain of FAD-linked sulfhydryl oxidase ALR (P55789 whole entry): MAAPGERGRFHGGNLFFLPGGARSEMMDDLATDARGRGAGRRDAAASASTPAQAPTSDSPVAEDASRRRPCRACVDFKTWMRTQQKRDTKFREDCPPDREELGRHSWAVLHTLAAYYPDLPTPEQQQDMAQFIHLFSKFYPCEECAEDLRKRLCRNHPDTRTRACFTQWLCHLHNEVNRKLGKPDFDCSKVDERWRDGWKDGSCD
Chain of Large T antigen (P03070 whole entry): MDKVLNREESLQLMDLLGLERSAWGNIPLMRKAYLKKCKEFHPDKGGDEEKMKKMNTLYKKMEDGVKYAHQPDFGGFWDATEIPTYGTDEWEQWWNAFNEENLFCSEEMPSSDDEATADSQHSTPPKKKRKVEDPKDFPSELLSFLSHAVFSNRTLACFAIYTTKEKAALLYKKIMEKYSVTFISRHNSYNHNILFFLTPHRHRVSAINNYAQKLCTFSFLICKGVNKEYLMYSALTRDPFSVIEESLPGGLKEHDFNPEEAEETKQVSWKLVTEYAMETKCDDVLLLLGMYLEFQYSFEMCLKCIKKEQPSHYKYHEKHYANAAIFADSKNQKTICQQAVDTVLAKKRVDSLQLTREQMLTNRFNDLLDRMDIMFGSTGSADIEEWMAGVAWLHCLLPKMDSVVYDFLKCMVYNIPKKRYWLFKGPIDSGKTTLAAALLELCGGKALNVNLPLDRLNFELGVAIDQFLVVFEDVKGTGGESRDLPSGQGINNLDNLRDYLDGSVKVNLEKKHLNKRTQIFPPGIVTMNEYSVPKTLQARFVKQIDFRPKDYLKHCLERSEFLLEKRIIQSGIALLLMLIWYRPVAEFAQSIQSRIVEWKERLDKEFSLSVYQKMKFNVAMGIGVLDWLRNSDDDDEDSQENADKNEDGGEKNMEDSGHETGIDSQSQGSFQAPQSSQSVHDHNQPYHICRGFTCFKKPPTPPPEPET

A word on the CC50: it is the concentration that lowers cell viability or growth by half. Turning to `COc1ccc([N+](=O)[O-])cc1C1NN=C(c2ccccc2O)S1` (stereo unspecified), the CC50 in [1] is > 40 µM (active).
By IC50 is commonly meant the midpoint of a concentration-inhibition curve. `S=C(c1ccc(-c2ccccc2Cl)o1)N1CCOCC1`: the IC50 in [2] was 44.6 µM (active).
Regarding `CCNS(=O)(=O)c1ccc(-c2ccc(-n3cnnn3)cc2)cc1`, the half-maximal cytotoxic concentration (CC50) in [3] was > 40 µM (active).
The same measure, in the same setting: the same measure for `CCN(CCCNC(=O)C1CCCN(S(=O)(=O)CC)C1)c1cccc(C)c1` (stereo unspecified): > 40 µM (active).
With `COc1ccc(C(=O)Nc2cc(Cl)ccc2C(=O)O)cc1`, the IC50 in experiment [4] is > 80 µM (inactive); at Hexokinase, 11.2 µM (active) and 8.23 µM (active).
For orientation: EC50 means the concentration that produces a half-maximal response. Turning to `COc1cc(/C=C/C(=O)c2ccc(O)cc2)ccc1OCC#N`, in the experiment with Vero, the cytotoxic concentration (CC50) was 31.9 µM (active). Moreover, the values for the EC50 in experiment [5] and in experiment [6] were 2.34 µM (active) and 1.93 µM (active), respectively.
For the compound `O=[N+]([O-])c1cc([N+](=O)[O-])c2cccnc2c1Oc1ccccc1O`, the IC50 at Procathepsin L is > 59.6 µM (not active); in [7] it was 2.82 µM (active); on Large T antigen, 7.81 µM (active); at Aspartyl aminopeptidase, 3.27 µM (active). The EC50 in [8] was > 50 µM (active).
Regarding `O=C(NNC(=S)NC1CC2C=CC1C2)c1cccnc1` (stereo unspecified), the EC50 in experiment [9] is listed as > 120 µM (not active).
For `CCn1c(=N)n(CC(=O)c2ccc(Cl)c(Cl)c2)c2ccccc21`, the CC50 with Vero was 15.5 µM (active). The EC50 in [10] was 0.771 µM (active); in [11] it was < 0.1 µM (active); in [12], 1.18 µM (active); in [13], 0.474 µM (active); in the experiment on H4, > 120 µM (not active).
A word on the AC50: it is the concentration giving half of the maximal activity seen. With `C=CCn1c(S)nnc1-c1cccc([N+](=O)[O-])c1`, the IC50 in experiment [2] is 8.72 µM (active). In experiment [14], the AC50 was 9.06 µM (active).
Turning to `O=C1CC(c2ccc(Cl)cc2)N2CCNC2=C1C(=O)Nc1ccccc1` (stereo unspecified), the concentration giving a half-maximal response (EC50) in [8] was > 50 µM (active).
Still for that read-out and setting: to `CCN1CCN(C(=O)c2cc3cc(Cl)ccc3[nH]2)CC1` belongs > 50 µM (active).
In the case of `COCCCN=C(S)NN=C(S)Nc1ccccc1`, the IC50 in experiment [2] was 16.4 µM (active).
On to `CC(NC(=O)c1ccc(Br)cc1)c1ccccc1` (stereo unspecified), for which, in experiment [9], the EC50 is on record as > 120 µM (not active).
The same measure, in the same setting: to `O=C(COC(=O)Cc1ccc(S(=O)(=O)N2CCOCC2)s1)Nc1ccc2c(c1)OCO2` belongs > 120 µM (not active).
For the compound `Cc1ccc(OCC(=O)Nc2ccc3c4c(cccc24)CC3)c(C)c1`, the CC50 in [1] was > 40 µM (active).
As to `O=C(Nc1cc(Cl)ccc1C(=O)O)c1ccc2c(c1)CCC2`, at Hexokinase, the IC50 was 4.83 µM (active).
Turning to `CC(C)(C)c1cc(C(=O)N/N=C/c2ccc([N+](=O)[O-])s2)[nH]n1`, the CC50 in experiment [15] was > 20 µM (active); in experiment [17], 12 µM (active); in experiment [18], 18.9 µM (active). For the same compound, the EC50 in experiment [16] was 0.15 µM (active); in the experiment on Streptococcus, 15.8 µM (active); in [19] it was > 60 µM (not active); at Streptokinase A, > 150 µM (not active); in experiment [20], 12.3 µM (active). The IC50 in “cells” was 5.22 µM (active). Also, the AC50 with INS1 is 6.87 µM (active).
In the case of `CC12CC[C@H]3[C@@H](CCC4(O)C[C@H](O)CCC34/C=N/NC(=O)c3ccccc3O)C1(O)CCC2C1=CC(=O)OC1` (stereo partly specified), the CC50 with Vero is 22.2 µM (active).

Source of the values: ChEMBL document CHEMBL1201862, “PubChem BioAssay data set” (2004).
